# Assay results taken from article PMC9878345 (Frontiers in Chemistry, 2023).
# Where “and” joins values, the source holds several entries; their conditions need not be identical. Equal entries are not always repeated. Where two headings read alike, the source gives them in different places.
# Columns and labels:
# [1] = test system: Vero-E6 cells; experiment: Cell viability assay (PrestoBlue); type: cell-based, African green monkey; conditions: for cytotoxicity (in words): 24, 48, 72 h at 50, 100, 200 µM; for cytotoxicity: at the tested doses and time points
# Protocol: The cytotoxic effect of selected phytochemicals were carried out with Vero-E6 cells using PrestoBlue™ Cell Viability kit as described earlier ([Lewis et al., 2022]). Briefly, Vero-E6 cells (20,000 cells) were seeded overnight in 96 well plates. Then, 100 µL of complete media (EMEM+10% FBS+1%Pen/Strep) was added to refresh the cells along with 50, 100, and 200 µM selected phytochemicals, and incubation was continued for 24, 48, and 72 hs at 37°C respectively. Cytotoxicity detection regent (PrestoBlue solution) was added and incubated for additional 1h at 37°C. The absorbance was taken at 530/25 excitation and 590/35 nm emission using Bio-Tek Synergy HT fluorescent plate reader.
# [2] = biological target: T1, SARS-CoV-2 PLpro (Severe acute respiratory syndrome coronavirus 2, UniProt P0DTD1); experiment: biochemical; type: biochemical; conditions: for inhibition at 50 µM / inhibition at 100 µM / inhibition at 200 µM: read-out: inhibition of PLpro proteolytic activity; for inhibition activity in SARS-CoV-2 PLpro enzymatic activity: concentration not stated; for inhibitory activity towards PLpro proteolytic activity (in words): at the tested concentrations (50, 100, 200 μM); for IC50 / IC50, PLpro proteolytic activity (Figure 5) / IC50 towards PLpro proteolytic activity: dose-dependent study; for IC50 / IC50 towards PLpro proteolytic activity: 0–100 µM, non-linear regression
# [3] = biological target: T1, SARS-CoV-2 PLpro; experiment: biochemical
# [4] = read-out: IC50 towards PLpro proteolytic activity
# [5] = read-out: inhibition of PLpro DUB activity
compound,measurement,setting,value
"O=C(O[C@@H]1Cc2c(O)cc(O)cc2O[C@@H]1c1cc(O)c(O)c(O)c1)c1cc(O)c(O)c(O)c1 [EGCG, epigallocatechin gallate]",cytotoxicity (in words),[1],not c ytotoxic
same,inhibition at 50 µM,"[2]; 50 μM, vs DMSO control",65%
same,inhibition at 100 µM,"[2]; 100 μM, vs DMSO control",81%
same,inhibition at 200 µM,"[2]; 200 μM, vs DMSO control",97%
same,inhibition activity in SARS-CoV-2 PLpro enzymatic activity,[2],more than 50%
same,inhibition at 50 µM,"[3]; 50 μM, vs DMSO control, read-out: inhibition of PLpro DUB activity",70%
same,inhibition at 100 µM,"[3]; 100 μM, vs DMSO control, read-out: inhibition of PLpro DUB activity",90%
same,inhibition at 200 µM,"[3]; 200 μM, vs DMSO control, read-out: inhibition of PLpro DUB activity",95%
"C[C@@H]1CC[C@H]2[C@@H](C)C(=O)O[C@@H]3O[C@@]4(C)CC[C@@H]1[C@]32OO4 [artemisinin, reference compound]",inhibitory activity towards PLpro proteolytic activity (in words),[2],did not show inhibitory activity
C=C(C)[C@@H]1CC[C@]2(C(=O)O)CC[C@]3(C)[C@H](CC[C@@H]4[C@@]5(C)CC[C@H](O)C(C)(C)[C@@H]5CC[C@]43C)[C@@H]12 [betulinic acid],inhibitory activity towards PLpro proteolytic activity (in words),[2],did not show inhibitory activity
O.Oc1cc(O)c2c(c1)O[C@H](c1ccc(O)c(O)c1)[C@@H](O)C2 [catechin],inhibition of PLpro proteolytic activity,"[2]; 50 μM, vs DMSO control",25%
same,inhibition of PLpro proteolytic activity,"[2]; 100 μM, vs DMSO control",44%
same,inhibition of PLpro proteolytic activity,"[2]; 200 μM, vs DMSO control",64%
same,IC50,[2]; [4],14.2 µM
same,inhibition of PLpro DUB activity,"[3]; 50 μM, vs DMSO control",30%
same,inhibition of PLpro DUB activity,"[3]; 100 μM, vs DMSO control",40%
same,inhibition of PLpro DUB activity,"[3]; 200 μM, vs DMSO control",50%
CN1Cc2c(ccc3c2OCO3)[C@@H]2[C@H]1c1cc3c(cc1C[C@@H]2O)OCO3 [chelidonine],inhibitory activity towards PLpro proteolytic activity (in words),[2],only colchicine out of all the tested alkaloids
O=c1c(-c2ccc(O)cc2)coc2cc(O)ccc12 [daidzein],inhibitory activity towards PLpro proteolytic activity (in words),[2],"none of the tested isoflavone compounds such as daidzein, daidzin, genistein, genistin, and isoflorentin demonstrated an inhibitory effect"
O=c1c(-c2ccc(O)cc2)coc2cc(O[C@@H]3O[C@H](CO)[C@@H](O)[C@H](O)[C@H]3O)ccc12 [daidzin],inhibitory activity towards PLpro proteolytic activity (in words),[2],"none of the tested isoflavone compounds such as daidzein, daidzin, genistein, genistin, and isoflorentin demonstrated an inhibitory effect"
C=CCSSCC=C [diallyl disulfide],inhibitory activity towards PLpro proteolytic activity (in words),[2],did not show inhibitory activity
C=CCSSSCC=C [diallyl trisulfide],inhibitory activity towards PLpro proteolytic activity (in words),[2],did not show inhibitory activity
O=c1c(-c2ccc(O)cc2)coc2cc(O)cc(O)c12 [genistein],inhibitory activity towards PLpro proteolytic activity (in words),[2],"none of the tested isoflavone compounds such as daidzein, daidzin, genistein, genistin, and isoflorentin demonstrated an inhibitory effect"
O=c1c(-c2ccc(O)cc2)coc2cc(O[C@@H]3O[C@H](CO)[C@@H](O)[C@H](O)[C@H]3O)cc(O)c12 [genistin],inhibitory activity towards PLpro proteolytic activity (in words),[2],"none of the tested isoflavone compounds such as daidzein, daidzin, genistein, genistin, and isoflorentin demonstrated an inhibitory effect"
CC1(C)[C@@H](O[C@H]2O[C@H](C(=O)O)[C@@H](O)[C@H](O)[C@H]2O[C@@H]2O[C@H](C(=O)O)[C@@H](O)[C@H](O)[C@H]2O)CC[C@]2(C)[C@H]3C(=O)C=C4[C@@H]5C[C@@](C)(C(=O)O)CC[C@]5(C)CC[C@@]4(C)[C@]3(C)CC[C@@H]12 [glycyrrhizic acid],inhibitory activity towards PLpro proteolytic activity (in words),[2],did not show inhibitory activity
COc1cc(-c2coc3cc4c(c(OC)c3c2=O)OCO4)cc(OC)c1OC [isoflorentin],inhibitory activity towards PLpro proteolytic activity (in words),[2],"none of the tested isoflavone compounds such as daidzein, daidzin, genistein, genistin, and isoflorentin demonstrated an inhibitory effect"
O[C@H]1[C@H]2c3cc4c(cc3CN3CCC(=C[C@@H]1O)[C@H]23)OCO4 [lycorine],inhibitory activity towards PLpro proteolytic activity (in words),[2],only colchicine out of all the tested alkaloids
"O=c1c2cc(O)c(O)cc2oc2cc(O)c([C@@H]3O[C@H](CO)[C@@H](O)[C@H](O)[C@H]3O)c(O)c12 [mangiferin, 2-β-D-glucopyranosyl-1,3,6,7-tetrahydroxy-9H-xanthan-9-one]",cytotoxicity (in words),[1],not c ytotoxic
same,IC50,[2]; IC50 towards PLpro proteolytic activity,95.3 µM and 43.4 µM
same,inhibition of PLpro proteolytic activity,[2]; concentration not given,70%
same,inhibition at 200 µM,[2],> 50%
same,IC50,[3],104 µM
same,inhibition at 200 µM,[3]; [5],10 to 30%
"O=c1c(O)c(-c2cc(O)c(O)c(O)c2)oc2cc(O)cc(O)c12 [myricetin, 3,5,7, 3′, 4′, 5′-hexahydroxyflavone]",cytotoxicity,[1],20-30%
CC1(C)OC(=O)C=C[C@]2(C)[C@H]3CC[C@@]4(C)[C@H](c5ccoc5)OC(=O)[C@H]5O[C@]54[C@]3(C)C(=O)C[C@@H]12 [obacunone],inhibitory activity towards PLpro proteolytic activity (in words),[2],did not show inhibitory activity
C/C=C1/[C@H](O[C@@H]2O[C@H](CO)[C@@H](O)[C@H](O)[C@H]2O)OC=C(C(=O)OC)[C@H]1CC(=O)OCCc1ccc(O)c(O)c1 [oleuropein],cytotoxicity,[1],20-30%
same,"IC50, PLpro proteolytic activity (Figure 5)",[2],Ambiguous
same,IC50 towards PLpro proteolytic activity,[2],ambiguous
same,inhibition at 200 µM,[2],60%
same,IC50,[3],132 µM
same,inhibition at 200 µM,[3]; [5],50%
O=C(/C=C/c1ccc(O)c(O)c1)O[C@H](Cc1ccc(O)c(O)c1)C(=O)O [rosmarinic acid],inhibition at 200 µM,[2],50%
C[C@@H]1O[C@@H](OC[C@H]2O[C@@H](Oc3c(-c4ccc(O)c(O)c4)oc4cc(O)cc(O)c4c3=O)[C@H](O)[C@@H](O)[C@@H]2O)[C@H](O)[C@H](O)[C@H]1O [rutin],cytotoxicity (in words),[1],not c ytotoxic
same,inhibition at 50 µM,[2],70%
same,inhibition at 100 µM,[2],70%
same,inhibition at 200 µM,[2],88%
O=C1C=CC[C@@H]2[C@H]3CCCN4CCC[C@@H](CN12)[C@@H]34 [sophocarpine],inhibitory activity towards PLpro proteolytic activity (in words),[2],only colchicine out of all the tested alkaloids
COc1ccc2cc1Oc1ccc(cc1)C[C@H]1c3cc(c(OC)cc3CCN1C)Oc1c(OC)c(OC)cc3c1[C@H](C2)N(C)CC3 [tetrandrine],inhibitory activity towards PLpro proteolytic activity (in words),[2],only colchicine out of all the tested alkaloids
O=c1c(O)cc([C@H]2Oc3cc(O)cc(O)c3C[C@H]2O)cc2c([C@H]3Oc4cc(O)cc(O)c4C[C@H]3O)cc(O)c(O)c12 [theaflavin],inhibition at 50 µM,"[2]; 50 μM, vs DMSO control",94%
same,inhibition at 200 µM,"[2]; 200 μM, vs DMSO control",100%
same,inhibition activity in SARS-CoV-2 PLpro enzymatic activity,[2],more than 50%
same,IC50,[2]; [4],7.3 µM
same,inhibition of PLpro DUB activity,"[3]; 50 μM, vs DMSO control",complete inhibition
same,IC50,"[3]; dose-dependent study, 0–100 µM, non-linear regression, read-out: IC50 for PLpro DUB activity",13.2 µM
same,IC50,"[3]; dose-dependent study, read-out: IC50, PLpro DUB activity (Figure 6)",13.2 µM
"COc1cc2oc3cc(O)c(OC)c(CC=C(C)C)c3c(=O)c2c(O)c1CC=C(C)C [β-mangostin, b-Mangostin]",inhibitory activity towards PLpro proteolytic activity (in words),[2],Only γ-mangostin and mangiferin exhibited more than 50% inhibitory activity
CC(C)=CCc1c(O)cc2oc3cc(O)c(O)c(CC=C(C)C)c3c(=O)c2c1O [γ-mangostin],"IC50, PLpro proteolytic activity (Figure 5)",[2],Ambiguous
same,IC50 towards PLpro proteolytic activity,[2],ambiguous
evodiamine,inhibitory activity towards PLpro proteolytic activity (in words),[2],only colchicine out of all the tested alkaloids
